Test results: PubChem BioAssay (NCI)
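Growth conditions: 96-well plates. Treatment: test compound, 48 hours, 5 concentrations. Analysis: linear interpolation between bracketing concentrations; unreached endpoints set to highest concentration. TGI denotes the concentration required for complete inhibition of growth.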

Test system: SK-MEL-5 melanoma
Assay: DTP human tumour cell line panel, 48 h

Compound	TGI
CC(C)C(C/C=C1\CC(CO)(COC(=O)C(C)(C)C)OC1=O)C(C)C (configuration not stated)	20 µM
COC(C)(C)OCCN1CCN(CCN2C3=C(C=C(C(C)=O)C3)Sc3ccccc32)CC1	32 µM
CC(=O)O[C@H]1CC[C@@]2(C)C(=CC[C@H]3[C@@H]4C/C(=C\c5ccc(N(C)C)cc5)[C@H](OC(C)=O)[C@@]4(C)CC[C@@H]32)C1	74.9 µM

Test system: CAKI-1 renal
Assay: DTP human tumour cell line panel, 48 h

Compound	TGI
O=C(N(O)c1ccccc1Cl)C(O)(c1ccccc1)c1ccccc1	> 100 µM
CCCC(=O)N1CCN(c2ccc3c(c2)OC(C)O3)CC1 (configuration not stated)	> 100 µM
COC(=O)C1=C(O)c2ccc(Cl)cc2S(=O)(=O)N1C	> 100 µM
CCOC(=O)[C@H](C)OC(=O)[C@@](C)(NC(=O)c1ccccc1C(=O)OC)[C@@H]1NC=C(C(=O)OC)CS1	> 100 µM
CC(C)=CCC/C(C)=C/CC/C(C)=C/CC(CO)N(C)CC/C=C(\C)CCC=C(C)C (configuration not stated)	19.2 µM
C=C1CC/C=C(\C)CCC[C@H](C)[C@@H](O)[C@@H]2OC(=O)C(=C)[C@@H]2C[C@H]1O	17 µM
Cn1c2ccccc2c(=O)c2cccc(C(=O)NC(CS)C(=O)O)c21 (configuration not stated)	> 100 µM
CCOC(=O)c1sc2c(c1OC(=O)c1ccc(OC)cc1)c(=O)n(-c1ccccc1)c(=S)n2-c1ccccc1	> 100 µM
COc1ccc(-c2cc3ccccc3oc2=O)cc1OC	> 100 µM
CC1CN=C(N(C(=O)Nc2ccc(Cl)c(Cl)c2)c2ccccc2)S1 (configuration not stated)	> 100 µM
CCOC(=O)NNC(=O)NCCCCNC(=O)NNC(=O)OCC	> 100 µM
CC(C)(C)OC/C=C(/CO)[C@@H]1C=C[C@H](O)C1	> 100 µM
Nc1ccn([C@H]2CO[C@@H](CO)[C@@H]2O)c(=O)n1	> 100 µM
O=C(CC(C(=O)c1ccsc1)c1ccccc1)c1ccccc1 (configuration not stated)	> 100 µM
CC(C)C(C/C=C1\CC(CO)(COC(=O)C(C)(C)C)OC1=O)C(C)C (configuration not stated)	21.7 µM
COC(C)(C)OCCN1CCN(CCN2C3=C(C=C(C(C)=O)C3)Sc3ccccc32)CC1	48.2 µM

Test system: UACC-257 melanoma
Assay: DTP human tumour cell line panel, 48 h

Compound	TGI
O=C(N(O)c1ccccc1Cl)C(O)(c1ccccc1)c1ccccc1	> 100 µM
Cn1c2c(c3ccccc31)CCN1C(=O)CN(C(=O)C3CCCCC3)CC21 (configuration not stated)	> 100 µM
CCCC(=O)N1CCN(c2ccc3c(c2)OC(C)O3)CC1 (configuration not stated)	> 100 µM
COC(=O)C1=C(O)c2ccc(Cl)cc2S(=O)(=O)N1C	> 100 µM
CCOC(=O)[C@H](C)OC(=O)[C@@](C)(NC(=O)c1ccccc1C(=O)OC)[C@@H]1NC=C(C(=O)OC)CS1	> 100 µM
CC(C)=CCC/C(C)=C/CC/C(C)=C/CC(CO)N(C)CC/C=C(\C)CCC=C(C)C (configuration not stated)	19.3 µM
C=C1CC/C=C(\C)CCC[C@H](C)[C@@H](O)[C@@H]2OC(=O)C(=C)[C@@H]2C[C@H]1O	31.9 µM
Cn1c2ccccc2c(=O)c2cccc(C(=O)NC(CS)C(=O)O)c21 (configuration not stated)	> 100 µM
CCOC(=O)c1sc2c(c1OC(=O)c1ccc(OC)cc1)c(=O)n(-c1ccccc1)c(=S)n2-c1ccccc1	> 100 µM
COc1ccc(-c2cc3ccccc3oc2=O)cc1OC	> 100 µM
O=C(Cn1c(-c2ccccc2)cc2ccccc21)N1CCCC1	> 100 µM
CC1CN=C(N(C(=O)Nc2ccc(Cl)c(Cl)c2)c2ccccc2)S1 (configuration not stated)	> 100 µM
CCOC(=O)NNC(=O)NCCCCNC(=O)NNC(=O)OCC	> 100 µM
CC(C)(C)OC/C=C(/CO)[C@@H]1C=C[C@H](O)C1	> 100 µM
Nc1ccn([C@H]2CO[C@@H](CO)[C@@H]2O)c(=O)n1	> 100 µM
O=C(CC(C(=O)c1ccsc1)c1ccccc1)c1ccccc1 (configuration not stated)	> 100 µM
CC(C)C(C/C=C1\CC(CO)(COC(=O)C(C)(C)C)OC1=O)C(C)C (configuration not stated)	32.6 µM
COC(C)(C)OCCN1CCN(CCN2C3=C(C=C(C(C)=O)C3)Sc3ccccc32)CC1	36.9 µM
CC(=O)O[C@H]1CC[C@@]2(C)C(=CC[C@H]3[C@@H]4C/C(=C\c5ccc(N(C)C)cc5)[C@H](OC(C)=O)[C@@]4(C)CC[C@@H]32)C1	21.4 µM

Test system: SK-MEL-2 melanoma
Assay: DTP human tumour cell line panel, 48 h

Compound	TGI
O=C(N(O)c1ccccc1Cl)C(O)(c1ccccc1)c1ccccc1	> 100 µM
Cn1c2c(c3ccccc31)CCN1C(=O)CN(C(=O)C3CCCCC3)CC21 (configuration not stated)	> 100 µM
COC(=O)C1=C(O)c2ccc(Cl)cc2S(=O)(=O)N1C	> 100 µM
CCOC(=O)[C@H](C)OC(=O)[C@@](C)(NC(=O)c1ccccc1C(=O)OC)[C@@H]1NC=C(C(=O)OC)CS1	> 100 µM
CC(C)=CCC/C(C)=C/CC/C(C)=C/CC(CO)N(C)CC/C=C(\C)CCC=C(C)C (configuration not stated)	28.6 µM
C=C1CC/C=C(\C)CCC[C@H](C)[C@@H](O)[C@@H]2OC(=O)C(=C)[C@@H]2C[C@H]1O	27 µM
Cn1c2ccccc2c(=O)c2cccc(C(=O)NC(CS)C(=O)O)c21 (configuration not stated)	> 100 µM
COc1ccc(-c2cc3ccccc3oc2=O)cc1OC	> 100 µM
O=C(Cn1c(-c2ccccc2)cc2ccccc21)N1CCCC1	> 100 µM
CC1CN=C(N(C(=O)Nc2ccc(Cl)c(Cl)c2)c2ccccc2)S1 (configuration not stated)	97.1 µM
CCOC(=O)NNC(=O)NCCCCNC(=O)NNC(=O)OCC	> 100 µM
CC(C)(C)OC/C=C(/CO)[C@@H]1C=C[C@H](O)C1	> 100 µM
Nc1ccn([C@H]2CO[C@@H](CO)[C@@H]2O)c(=O)n1	> 100 µM
CC(C)C(C/C=C1\CC(CO)(COC(=O)C(C)(C)C)OC1=O)C(C)C (configuration not stated)	39.5 µM
COC(C)(C)OCCN1CCN(CCN2C3=C(C=C(C(C)=O)C3)Sc3ccccc32)CC1	41.4 µM
CC(=O)O[C@H]1CC[C@@]2(C)C(=CC[C@H]3[C@@H]4C/C(=C\c5ccc(N(C)C)cc5)[C@H](OC(C)=O)[C@@]4(C)CC[C@@H]32)C1	22.5 µM

Test system: TK-10 renal
Assay: DTP human tumour cell line panel, 48 h

Compound	TGI
O=C(N(O)c1ccccc1Cl)C(O)(c1ccccc1)c1ccccc1	> 100 µM
Cn1c2c(c3ccccc31)CCN1C(=O)CN(C(=O)C3CCCCC3)CC21 (configuration not stated)	> 100 µM
CCCC(=O)N1CCN(c2ccc3c(c2)OC(C)O3)CC1 (configuration not stated)	> 100 µM
COC(=O)C1=C(O)c2ccc(Cl)cc2S(=O)(=O)N1C	> 100 µM
CCOC(=O)[C@H](C)OC(=O)[C@@](C)(NC(=O)c1ccccc1C(=O)OC)[C@@H]1NC=C(C(=O)OC)CS1	> 100 µM
CC(C)=CCC/C(C)=C/CC/C(C)=C/CC(CO)N(C)CC/C=C(\C)CCC=C(C)C (configuration not stated)	22.7 µM
C=C1CC/C=C(\C)CCC[C@H](C)[C@@H](O)[C@@H]2OC(=O)C(=C)[C@@H]2C[C@H]1O	4.5 µM
Cn1c2ccccc2c(=O)c2cccc(C(=O)NC(CS)C(=O)O)c21 (configuration not stated)	> 100 µM
CCOC(=O)c1sc2c(c1OC(=O)c1ccc(OC)cc1)c(=O)n(-c1ccccc1)c(=S)n2-c1ccccc1	> 100 µM
COc1ccc(-c2cc3ccccc3oc2=O)cc1OC	> 100 µM
CC1CN=C(N(C(=O)Nc2ccc(Cl)c(Cl)c2)c2ccccc2)S1 (configuration not stated)	> 100 µM
COC(=O)NC(C(F)(F)F)(C(F)(F)F)P1(=O)OCCCO1	97.6 µM
CCOC(=O)NNC(=O)NCCCCNC(=O)NNC(=O)OCC	> 100 µM
Nc1ccn([C@H]2CO[C@@H](CO)[C@@H]2O)c(=O)n1	> 100 µM
O=C(CC(C(=O)c1ccsc1)c1ccccc1)c1ccccc1 (configuration not stated)	> 100 µM
CC(C)C(C/C=C1\CC(CO)(COC(=O)C(C)(C)C)OC1=O)C(C)C (configuration not stated)	21.1 µM
COC(C)(C)OCCN1CCN(CCN2C3=C(C=C(C(C)=O)C3)Sc3ccccc32)CC1	34.6 µM
CC(=O)O[C@H]1CC[C@@]2(C)C(=CC[C@H]3[C@@H]4C/C(=C\c5ccc(N(C)C)cc5)[C@H](OC(C)=O)[C@@]4(C)CC[C@@H]32)C1	35.6 µM

Test system: HT29 colon
Assay: DTP human tumour cell line panel, 48 h

Compound	TGI
O=C(N(O)c1ccccc1Cl)C(O)(c1ccccc1)c1ccccc1	> 100 µM
Cn1c2c(c3ccccc31)CCN1C(=O)CN(C(=O)C3CCCCC3)CC21 (configuration not stated)	> 100 µM
CCCC(=O)N1CCN(c2ccc3c(c2)OC(C)O3)CC1 (configuration not stated)	> 100 µM
COC(=O)C1=C(O)c2ccc(Cl)cc2S(=O)(=O)N1C	> 100 µM
CCOC(=O)[C@H](C)OC(=O)[C@@](C)(NC(=O)c1ccccc1C(=O)OC)[C@@H]1NC=C(C(=O)OC)CS1	> 100 µM
CC(C)=CCC/C(C)=C/CC/C(C)=C/CC(CO)N(C)CC/C=C(\C)CCC=C(C)C (configuration not stated)	14.4 µM
C=C1CC/C=C(\C)CCC[C@H](C)[C@@H](O)[C@@H]2OC(=O)C(=C)[C@@H]2C[C@H]1O	15.2 µM
Cn1c2ccccc2c(=O)c2cccc(C(=O)NC(CS)C(=O)O)c21 (configuration not stated)	> 100 µM
CCOC(=O)c1sc2c(c1OC(=O)c1ccc(OC)cc1)c(=O)n(-c1ccccc1)c(=S)n2-c1ccccc1	> 100 µM
COc1ccc(-c2cc3ccccc3oc2=O)cc1OC	> 100 µM
O=C(Cn1c(-c2ccccc2)cc2ccccc21)N1CCCC1	> 100 µM
CC1CN=C(N(C(=O)Nc2ccc(Cl)c(Cl)c2)c2ccccc2)S1 (configuration not stated)	> 100 µM
COC(=O)NC(C(F)(F)F)(C(F)(F)F)P1(=O)OCCCO1	63.9 µM
CCOC(=O)NNC(=O)NCCCCNC(=O)NNC(=O)OCC	> 100 µM
CC(C)(C)OC/C=C(/CO)[C@@H]1C=C[C@H](O)C1	> 100 µM
Nc1ccn([C@H]2CO[C@@H](CO)[C@@H]2O)c(=O)n1	> 100 µM
O=C(CC(C(=O)c1ccsc1)c1ccccc1)c1ccccc1 (configuration not stated)	> 100 µM
CC(C)C(C/C=C1\CC(CO)(COC(=O)C(C)(C)C)OC1=O)C(C)C (configuration not stated)	49.6 µM
COC(C)(C)OCCN1CCN(CCN2C3=C(C=C(C(C)=O)C3)Sc3ccccc32)CC1	33.2 µM
CC(=O)O[C@H]1CC[C@@]2(C)C(=CC[C@H]3[C@@H]4C/C(=C\c5ccc(N(C)C)cc5)[C@H](OC(C)=O)[C@@]4(C)CC[C@@H]32)C1	34.2 µM
